In brackets after ≈: the same amount, converted by molar mass.

For the first assay, the system named is Saccharomyces cerevisiae. Nature of the assay: (§1) In vitro flocculation inhibitory ability was determined towards Yeast cell wall lectin (KbWCL).
Conditions: not given
Type of assay: functional.
As usually defined, the MIC is the least concentration at which growth counts as inhibited. For the molecule `OC1OC[C@@H](O)[C@@H](O)[C@@H]1O` (stereo not given in full), the MIC result is “No inhibition”.
In the case of `OC[C@H]1O[C@@H]2O[C@H]3[C@H](O)[C@@H](O)[C@@H](O[C@H]4[C@H](O)[C@@H](O)[C@@H](O[C@H]5[C@H](O)[C@@H](O)[C@@H](O[C@H]6[C@H](O)[C@@H](O)[C@@H](O[C@H]7[C@H](O)[C@@H](O)[C@@H](O[C@H]8[C@H](O)[C@@H](O)[C@@H](O[C@H]1[C@H](O)[C@H]2O)O[C@@H]8CO)O[C@@H]7CO)O[C@@H]6CO)O[C@@H]5CO)O[C@@H]4CO)O[C@@H]3CO`, the MIC entry was “No inhibition”.
Turning to `OC[C@H]1O[C@@H]2O[C@H]3[C@H](O)[C@@H](O)[C@@H](O[C@H]4[C@H](O)[C@@H](O)[C@@H](O[C@H]5[C@H](O)[C@@H](O)[C@@H](O[C@H]6[C@H](O)[C@@H](O)[C@@H](O[C@H]7[C@H](O)[C@@H](O)[C@@H](O[C@H]1[C@H](O)[C@H]2O)O[C@@H]7CO)O[C@@H]6CO)O[C@@H]5CO)O[C@@H]4CO)O[C@@H]3CO`, the MIC entry was “No inhibition”.
As to `OC[C@H]1OC(O)[C@H](O)[C@@H](O)[C@@H]1O` (stereo not given in full), the MIC result is “No inhibition”.

Test system in another assay: not listed separately
Described as §1.
Conditions: not given
Type of assay: functional, Saccharomyces cerevisiae.
In turn, `O=[N+]([O-])c1ccc(O[C@H]2O[C@H](CO)[C@@H](O)[C@H](O)[C@H]2O)cc1` (stereo in doubt; form 2) gave an MIC of 830 µM (≈ 250 µg/mL).
`O=[N+]([O-])c1ccc(O[C@H]2O[C@H](CO)[C@@H](O)[C@H](O)[C@H]2O)cc1` (stereo in doubt; form 1) displayed an MIC of 400 µM (≈ 121 µg/mL).
The molecule `[Na+].[O-]CC1OC(SCC2OC3OC4C(CSC5OC(CO)C(O)C(O)C5O)OC(OC5C(CSC6OC(CO)C(O)C(O)C6O)OC(OC6C(CSC7OC(CO)C(O)C(O)C7O)OC(OC7C(CSC8OC(CO)C(O)C(O)C8O)OC(OC8C(CSC9OC(CO)C(O)C(O)C9O)OC(OC9C(CSC%10OC(CO)C(O)C(O)C%10O)OC(OC2C(O)C3O)C(O)C9O)C(O)C8O)C(O)C7O)C(O)C6O)C(O)C5O)C(O)C4O)C(O)C(O)C1O` (stereo in doubt; 5) returned a minimal inhibitory concentration (MIC) of 1660 µM.
`[Na+].[O-]CC1OC(SCC2OC3OC4C(CSC5OC(CO)C(O)C(O)C5O)OC(OC5C(CSC6OC(CO)C(O)C(O)C6O)OC(OC6C(CSC7OC(CO)C(O)C(O)C7O)OC(OC7C(CSC8OC(CO)C(O)C(O)C8O)OC(OC8C(CSC9OC(CO)C(O)C(O)C9O)OC(OC9C(CSC%10OC(CO)C(O)C(O)C%10O)OC(OC2C(O)C3O)C(O)C9O)C(O)C8O)C(O)C7O)C(O)C6O)C(O)C5O)C(O)C4O)C(O)C(O)C1O` (stereo in doubt; 6) returned an MIC of 700 µM.

Still in this assay, the particulars now being: Saccharomyces cerevisiae; read-out: MIC.
For `OC[C@H]1O[C@H](OCC2O[C@@H](O)[C@H](O)[C@@H](O)[C@@H]2O)[C@H](O)[C@@H](O)[C@H]1O` (stereo not given in full) [MELIBIOSE], the MIC worked out at 600 µM (≈ 205 µg/mL).
In the case of `C[C@H]1OC(O)[C@H](O)[C@@H](O)[C@H]1O` (stereo not given in full), the minimal inhibitory concentration (MIC) worked out at 3500 µM (≈ 575 µg/mL).
Consider `OCC1OC(SCCSCC2OC3OC4C(CSCCSC5OC(CO)C(O)C(O)C5O)OC(OC5C(CSCCSC6OC(CO)C(O)C(O)C6O)OC(OC6C(CSCCSC7OC(CO)C(O)C(O)C7O)OC(OC7C(CSCCSC8OC(CO)C(O)C(O)C8O)OC(OC8C(CSCCSC9OC(CO)C(O)C(O)C9O)OC(OC9C(CSCCSC%10OC(CO)C(O)C(O)C%10O)OC(OC2C(O)C3O)C(O)C9O)C(O)C8O)C(O)C7O)C(O)C6O)C(O)C5O)C(O)C4O)C(O)C(O)C1O` (stereo not given), for which the MIC is 410 µM (≈ 1150 µg/mL).
Still for that read-out and setting: to `O=C(CCCCCCCC(=O)N[C@@H]1O[C@@H](CO)[C@H](O)[C@H](O)[C@@H]1O)NC[C@@H]1O[C@@H]2O[C@H]3[C@H](O)[C@H](O)[C@@H](O[C@H]4[C@H](O)[C@H](O)[C@@H](O[C@H]5[C@H](O)[C@H](O)[C@@H](O[C@H]6[C@H](O)[C@H](O)[C@@H](O[C@H]7[C@H](O)[C@H](O)[C@@H](O[C@H]8[C@H](O)[C@H](O)[C@@H](O[C@H]1[C@H](O)[C@@H]2O)O[C@H]8CO)O[C@H]7CO)O[C@H]6CO)O[C@H]5CO)O[C@H]4CO)O[C@H]3CO` belongs 1700 µM (≈ 2490 µg/mL); to `OC[C@@H]1O[C@@H](SC[C@@H]2O[C@@H]3O[C@H]4[C@H](O)[C@H](O)[C@@H](O[C@H]5[C@H](O)[C@H](O)[C@@H](O[C@H]6[C@H](O)[C@H](O)[C@@H](O[C@H]7[C@H](O)[C@H](O)[C@@H](O[C@H]8[C@H](O)[C@H](O)[C@@H](O[C@H]9[C@H](O)[C@H](O)[C@@H](O[C@H]2[C@H](O)[C@@H]3O)O[C@H]9CO)O[C@H]8CO)O[C@H]7CO)O[C@H]6CO)O[C@H]5CO)O[C@H]4CO)[C@@H](O)[C@@H](O)[C@@H]1O`, 3750 µM (≈ 4920 µg/mL); to `O=C(NC[C@@H]1O[C@@H]2O[C@H]3[C@H](O)[C@H](O)[C@@H](O[C@H]4[C@H](O)[C@H](O)[C@@H](O[C@H]5[C@H](O)[C@H](O)[C@@H](O[C@H]6[C@H](O)[C@H](O)[C@@H](O[C@H]7[C@H](O)[C@H](O)[C@@H](O[C@H]8[C@H](O)[C@H](O)[C@@H](O[C@H]1[C@H](O)[C@@H]2O)O[C@H]8CO)O[C@H]7CO)O[C@H]6CO)O[C@H]5CO)O[C@H]4CO)O[C@H]3CO)C(CS[C@@H]1O[C@@H](CO)[C@H](O)[C@H](O)[C@@H]1O)CS[C@@H]1O[C@@H](CO)[C@H](O)[C@H](O)[C@@H]1O`, 2000 µM (≈ 3190 µg/mL).
Turning to `OC[C@H]1O[C@H](OC[C@H]2O[C@H](O[C@]3(CO)O[C@H](CO)[C@@H](O)[C@@H]3O)[C@H](O)[C@@H](O)[C@@H]2O)[C@H](O)[C@@H](O)[C@H]1O` [RAFFINOSE], the MIC was 1200 µM (≈ 605 µg/mL).

The values are drawn from ChEMBL document CHEMBL1127717, “Synthesis of new oligosaccharidyl-thio--cyclodextrins (CDS): a novel family of potent drug-targetting vectors” (1994).
